Seven compounds from US11161845B2, “Pyrrolopyridine-aniline compounds for treatment of dermal disorders” (Nflection Therapeutics, Inc., priority 2017, dated 2021) can be followed below.

One may read the GI50 as the concentration that inhibits growth by half. Usually IC50 stands for the concentration that inhibits the measured activity by half.

One data set concerns HCT116 cells. Kind of data set: HCT116 (Kras) GI50 cell-based assay (Cell Titer-Glo). The following applies: Homo sapiens, HCT-116; 72 hours; read-out: Assay 3: HCT116 (Kras) GI50. How it is done:
(§1) Alternatively, the following procedure can be used to measure cell-based activity. Test compounds were dissolved in DMSO in 10 mM stock. Cell Titer-Glo® 2.0 Luminescent cell viability assay reagent was purchased from Promega (Madison, Wis.). A375 and HCT116 cell lines were purchased from American Type Culture Collection (Manassas, Va.). For A375 cells, cell culture media was DMEM+10% FBS. For HCT116 cells, cell culture media was McCoy's 5A+10% FBS. All media were supplemented with 100 μg/mL of penicillin, and 100 μg/mL of streptomycin. Cultures were maintained at 37° C. in a humidified atmosphere of 5% CO2 and 95% air.
(§2) Test compounds were diluted in DMSO solution with 10-dose and 3-fold dilutions in a source plate starting at 10 mM. 25 nL of each test compound was delivered from the source plate to each well of the 384-well cell culture plates (T=Final) by Echo 550. 25 μL of culture medium containing 2000 of A375 or HCT116 cells was added to each of the wells in duplicates of the cell culture plates (T=0 and T=Final). 25 μL of Cell Titer Glo 2.0 reagent was added to each well of cell culture plate (T=0). The contents were mixed on an orbital shaker for 2 min and incubated at room temperature for 15 min to stabilize luminescent signal. Luminescence was recorded by Envision 2104 Multilabel Reader (PerkinElmer, Santa Clara, Calif.). The number of viable cells in culture was determined based on quantitation of the ATP present in each culture well. The cells in cell culture plate (T=Final) were incubated with the compounds at 37° C., 5% CO2 for 72 hours. 25 μL of Cell Titer Glo 2.0 reagent was added to each well. The contents were mixed on an orbital shaker for 2 min and incubated at room temperature for 15 min to stabilize luminescent signal. Luminescence was recorded by Envision 2104 Multilabel Reader (PerkinElmer, Santa Clara, Calif.). The number of viable cells in culture was determined based on quantitation of the ATP present in each culture well. The G150 curves were plotted using the GraphPad Prism 4 program based on a sigmoidal dose-response equation Y=Bottom+(Top−Bottom)/(1+10^((Log EC50−X)*HillSlope)). All parameters in the equation were calculated by GraphPad Prism 4 program. […] Accordingly, GI50 is the value of 10^X, where X was calculated by the Curve Fitting Equation when Y=50 using Excel.
In general terms: ATP-based viability assays read luminescence as a measure of living cells.

Another data set addresses T1, MEK1 (Homo sapiens, UniProt Q02750).
T1 construct: N-terminal His-tagged recombinant human full length protein; His (N); purchased Invitrogen PV3303; host or cells: insect cells
Briefly: MEK inhibition assay, Biological Example 1a (33P-ATP, P81 filter-binding). The following applies: read-out: Assay 1: biochemical MEK IC50. The procedure: MEK1 inhibitory activity of compounds were tested using the following procedure. […] Activated in vitro by RAF1. MW=49.2 kDa, GenBank Accession No. NP_002746. • Substrate: 5 μM ERK2 (K52R), • Kinase-dead mutant, (GenBank Accession No. NM_0011949), aa2-358 with N-terminal His6 tag, MW=43.63 kDa, expressed in E. coli.
The substrate was prepared in freshly prepared Reaction Buffer. The kinase was delivered into the substrate solution and gently mixed. Test compounds were delivered in 100% DMSO into the kinase reaction mixture by Acoustic technology (Echo550; nanoliter range), and incubated for 20 min at room temperature. ^33P-ATP was delivered into the reaction mixture to initiate the reaction. The reaction mixture was incubated for 2 hours at room temperature. Kinase activity was detected by P81 filter-binding method.

The next data set has as its system A375 cells. Kind of data set: A375 (BRAF) GI50 cell-based assay (Cell Titer-Glo). The following applies: Homo sapiens, A-375; 72 hours; read-out: Assay 2: A375 (BRAF) GI50. The procedure:
as §1, §2

The nature of data set [1]: S9 stability assay, human liver S9 fraction. Format: in vitro ADME. Conditions: for half-life at 1 μM / microsomal CLint at 1 μM: pH 7.4. The procedure: Compounds were assessed for metabolic stability in human skin by assessing their rate of disappearance from human S9 skin fraction. Similarly, compounds were assessed for metabolic stability in human liver by assessing their rate of disappearance from human S9 liver fraction. The protocol below can be used to assess the difference between skin and hepatic metabolism.
The assay was carried out in 96-well microtiter plates at 37° C. Reaction mixtures (25 μL) contained a final concentration of 1 μM test compound, 2 mg/mL liver or skin S9 protein, and 1 mM NADPH in buffer (100 mM potassium phosphate, pH 7.4 buffer with 1 mM EDTA, 3 mM MgCl2). At each of the time points (0, 15, 30, and 60 minutes), 150 μL of quench solution (100% acetonitrile with 0.1% formic acid) with internal standard was transferred to each well. Besides the zero minute controls, mixtures containing the same components except the NADPH were also prepared as the negative control. Verapamil or testosterone was included as a positive control to verify assay performance. Plates were sealed and centrifuged at 4° C. for 15 minutes at 4000 rpm. The supernatant was transferred to fresh plates for LC/MS/MS analysis.
All samples were analyzed on LC/MS/MS using an AB Sciex API 4000 instrument, coupled to a Shimadzu LC-20AD LC Pump system. Analytical samples were separated using a Waters Atlantis T3 dC18 reverse phase HPLC column (20 mm×2.1 mm) at a flow rate of 0.5 mL/min. The mobile phase consisted of 0.1% formic acid in water (solvent A) and 0.1% formic acid in 100% acetonitrile (solvent B).
The extent of metabolism was calculated as the disappearance of the test compound, compared to the 0-min control reaction incubations. Initial rates were calculated for the compound concentration and used to determine t1/2 values and subsequently, the intrinsic clearance, CLint=(0.693) (1/t1/2 (min)) (mL incubation/mg of S9 protein).

The target of another data set is T2, MAP2K1 (MEK1) (Homo sapiens, UniProt Q02750).
T2 construct: purchased ThermoFisher
Briefly: MEK inhibition assay, Biological Example 1b (Z'-LYTE). The following applies: Biological Example 1b (compounds 8, 10, 12 and 13); read-out: Assay 1: biochemical MEK IC50. How it is done: MEK1 inhibitory activity of compounds were tested using the following procedure (protocol available at thermofisher.com/content/dam/LifeTech/migration/files/drug-discovery/pdfs.par.60256.file.dat/20130430%20ssbk%20customer %20protocol%20and %20assay%20conditions.pdf). The Z′-LYTE biochemical assay (ThermoFisher) employs a fluorescence-based, coupled-enzyme format and is based on the differential sensitivity of phosphorylated and non-phosphorylated peptides to proteolytic cleavage.
Test compounds in 100% DMSO were screened in 1% DMSO (final) in the well. For 10 point titrations, 3-fold serial dilutions are conducted from the starting concentration of 30 μM.
After the 1 hour incubation, 5 μL of a 1:1024 dilution of Development Reagent A (available from Invitrogen, catalog no. PV3295) was added.
ATP solutions were diluted to a 4× working concentration in Kinase Buffer (50 mM HEPES pH 7.5, 0.01% BRIJ-35, 10 mM MgCl2, 1 mM EGTA). ATP Km apparent was previously determined using a Z′-LYTE assay. The Development Reagent was diluted in Development Buffer (available from Invitrogen, catalog no. P3127).
Assay Protocol: 2.5 μL of 4× test compound or 100 nL of 100× Test Compound plus 2.4 μL Kinase Buffer, 5 μL of the 2× Peptide/Kinase Mixture, 2.5 μL of 4×ATP Solution were added to the plates and placed on a shake plate for 30-seconds. The kinase reaction was allowed to proceed for 60-minute at room temperature, before 5 μL of Development Reagent Solution was added, and the mixture agitated for 30-seconds on a shake plate. The mixture was incubated for 60-minute at room temperature. Fluorescence was measured using a plate reader and the data were analyzed.
This control yielded 100% cleaved peptide in the Development Reaction. The 100% Phosphorylation Control, which consisted of a synthetically phosphorylated peptide of the same sequence as the peptide substrate, was designed to allow for the calculation of percent phosphorylation. This control yielded a very low percentage of cleaved peptide in the Development Reaction. The 0% Phosphorylation and 100% Phosphorylation Controls allow for the calculation of the percent phosphorylation achieved in a specific reaction well.
The minimum emission ratio in a screen was established by the 0% Inhibition Control, which contained active kinase. This control was designed to produce a 10-50% phosphorylated peptide in the Kinase Reaction. […]
A known inhibitor control standard curve, 10 point titration, was run for each individual kinase on the same plate as the kinase to ensure the kinase was inhibited within an expected IC50 range previously determined.
The following controls are prepared for each concentration of Test Compound assayed. […] The expected value for a non-fluorescence compound should be 0%. […]
The data in Table A was calculated. […]

Where [2] appears, read: human, liver S9 fraction, Table 2, 1 μM, 2 mg/mL S9 protein, NADPH, read-out: Assay 4: human liver S9 half-life.
[3] abbreviates: human, liver S9 fraction, Table 2, 1 μM, 2 mg/mL S9 protein, NADPH, read-out: Assay 5: human liver S9 instrinsic clearance value.

Each structure is given as a SMILES string. Like-named read-outs stand apart in the source and are kept apart here.

T1 sequence (Q02750 whole entry): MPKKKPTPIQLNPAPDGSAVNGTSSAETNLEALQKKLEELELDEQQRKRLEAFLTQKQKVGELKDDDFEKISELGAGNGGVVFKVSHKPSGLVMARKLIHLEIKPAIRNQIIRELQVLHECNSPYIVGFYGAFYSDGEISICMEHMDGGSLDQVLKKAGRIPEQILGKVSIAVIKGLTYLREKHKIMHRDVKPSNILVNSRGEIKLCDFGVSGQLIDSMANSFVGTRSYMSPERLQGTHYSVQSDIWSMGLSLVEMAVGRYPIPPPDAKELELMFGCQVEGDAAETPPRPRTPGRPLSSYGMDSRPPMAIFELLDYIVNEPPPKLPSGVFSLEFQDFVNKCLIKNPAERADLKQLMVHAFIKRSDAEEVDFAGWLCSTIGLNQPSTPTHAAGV
T2 sequence (Q02750 whole entry): as above

For `Cn1c(Nc2ccc(I)cc2F)c(C(=O)NO)c2cccnc21` [Example 4, 2-((2-Fluoro-4-iodophenyl)amino)—N-hydroxy-1-methyl-1H-pyrrolo[2,3-b]pyridine-3-carboxamide], the GI50 in the data set with HCT116 cells was 5010 nM; with A375 cells, 809 nM. Also, on MEK1, the IC50 was 671 nM. Further, in data set [1] (setting [2]), the half-life at 1 μM worked out at 21 min. Also, the microsomal CLint at 1 μM in data set [1] (setting [3]) is 16.5 µL/min/mg.
Consider `Cn1c(Nc2ccc(I)cc2F)c(C(=O)NOC[C@H](O)CO)c2cccnc21` [Example 6, (R)—N-(2,3-Dihydroxypropoxy)-2-((2-fluoro-4-iodophenyl)amino)-1-methyl-1H-pyrrolo[2,3-b]pyridine-3-carboxamide], for which the GI50 in the data set on HCT116 cells is 448 nM; in the data set with A375 cells, 81 nM. Further, at MEK1, the IC50 is 371 nM. The half-life at 1 μM in data set [1] (setting [2]) is 90 min. Besides, in data set [1] (setting [3]), the microsomal CLint at 1 μM turned out to be 3.85 µL/min/mg.
For the compound `Cn1c(Nc2ccc(I)cc2F)c(C(=O)NOCC2CC2)c2cccnc21` [Example 7, N-(Cyclopropylmethoxy)-2-((2-fluoro-4-iodophenyl)amino)-1-methyl-1H-pyrrolo[2,3-b]pyridine-3-carboxamide], the GI50 in the data set on HCT116 cells and in the data set with A375 cells was 346 nM each time. Moreover, the IC50 on MEK1 was 260 nM. Besides, in data set [1] (Table 2, 1 μM, 2 mg/mL S9 protein, NADPH), the “Assay 5: human liver S9 instrinsic clearance value” came to 44.80 μL/min/mg protein. The microsomal CLint at 1 μM in data set [1] (Table 1, human liver S9 fraction, read-out: CLint) was 44.8 µL/min/mg. The half-life at 1 μM in data set [1] (Table 1, human liver S9 fraction, read-out: Liver S9 t1/2) came out at 8 min.
As for `COc1cnc2c(c1)c(C(=O)NOCCO)c(Nc1ccc(I)cc1F)n2C` [Example 8, 2-((2-Fluoro-4-iodophenyl)amino)—N-(2-hydroxyethoxy)-5-methoxy-1-methyl-1H-pyrrolo[2,3-b]pyridine-3-carboxamide], in data set [1] (setting [2]), the half-life at 1 μM amounted to 34 min. Besides, the microsomal CLint at 1 μM in data set [1] (setting [3]) was found to be 10.3 µL/min/mg. Moreover, the IC50 at MAP2K1 (MEK1) stood at 243 nM.
For `Cn1c(Nc2ccc(I)cc2F)c(C(=O)NC[C@H](O)CO)c2cccnc21` [Example 10, (S)—N-(2,3-dihydroxypropyl)-2-((2-fluoro-4-iodophenyl)amino)-1-methyl-1H-pyrrolo[2,3-b]pyridine-3-carboxamide], the half-life at 1 μM in data set [1] (setting [2]) is 96 min. The microsomal CLint at 1 μM in data set [1] (setting [3]) was found to be 3.59 µL/min/mg. Moreover, the concentration for half-maximal inhibition (IC50) at MAP2K1 (MEK1) stood at 1770 nM.
Taken in the same sequence, the figures for `Cn1c(Nc2ccc(I)cc2F)c(C(=O)NC[C@@H](O)CO)c2cccnc21` [Example 12, (R)—N-(2,3-dihydroxypropyl)-2-((2-fluoro-4-iodophenyl)amino)-1-methyl-1H-pyrrolo[2,3-b]pyridine-3-carboxamide] were 105 min, 3.29 µL/min/mg and 1780 nM.
Regarding `Cn1c(Nc2ccc(I)cc2F)c(C(N)=O)c2cccnc21` [Example 13, 2-(2-Fluoro-4-iodoanilino)-1-methyl-1H-pyrrolo[2,3-b]pyridine-3-carboxamide], in data set [1] (setting [2]), the half-life at 1 μM worked out at 23 min. Further, the microsomal CLint at 1 μM in data set [1] (setting [3]) turned out to be 15.4 µL/min/mg. Also, the IC50 at MAP2K1 (MEK1) was 9610 nM.
